Experimental data published in PubChem BioAssay AID248 (DTP/NCI, 2004).
Where “and” joins values, the source holds several entries; their conditions need not be identical. Equal values may be shown once. Toxic doses and inconclusive results are not listed. Cut-off read from the data, not from the text of the source: active = T/C of 150% or more; inactive = T/C below 125%.

Test system: L1210 leukemia ip in BDF1 mice, survival T/C
Experiment: NCI In Vivo Anticancer Drug Screen. Data for tumor model L1210 Leukemia (intraperitoneal) in B6D2F1 (BDF1) mice
Details: endpoint: mean survival time, higher = longer survival
How it was run: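 Survival endpoint. Drug-treated group vs vehicle group, expressed as T divided by C. Tumor passaged by transplantation.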

[1] = dose: 100.0 mg/kg/injection, schedule: Q04DX003 (ip), vehicle: saline with Tween-80
[2] = dose: 100.0 mg/kg/injection, schedule: Q04DX003 (ip), vehicle: Klucel (hydroxypropylcellulose) (HPC)
[3] = dose: 200.0 mg/kg/injection, schedule: Q04DX003 (ip), vehicle: Klucel (hydroxypropylcellulose) (HPC)
[4] = dose: 400.0 mg/kg/injection, schedule: Q04DX003 (ip), vehicle: Klucel (hydroxypropylcellulose) (HPC)
[5] = dose: 200.0 mg/kg/injection, schedule: Q04DX003 (ip), vehicle: saline with Tween-80
[6] = dose: 400.0 mg/kg/injection, schedule: Q04DX003 (ip), vehicle: saline with Tween-80
[7] = dose: 100.0 mg/kg/injection, schedule: Q04DX002 (ip), vehicle: saline with Tween-80
[8] = dose: 200.0 mg/kg/injection, schedule: Q04DX002 (ip), vehicle: saline with Tween-80
[9] = dose: 400.0 mg/kg/injection, schedule: Q04DX002 (ip), vehicle: saline with Tween-80
[10] = dose: 200.0 mg/kg/injection, schedule: Q01DX009 (ip), vehicle: saline
[11] = dose: 400.0 mg/kg/injection, schedule: Q01DX009 (ip), vehicle: saline
[12] = dose: 100.0 mg/kg/injection, schedule: Q01DX009 (ip), vehicle: Klucel (hydroxypropylcellulose) (HPC)
[13] = dose: 200.0 mg/kg/injection, schedule: Q01DX009 (ip), vehicle: Klucel (hydroxypropylcellulose) (HPC)
[14] = dose: 400.0 mg/kg/injection, schedule: Q01DX009 (ip), vehicle: Klucel (hydroxypropylcellulose) (HPC)
[15] = dose: 50.0 mg/kg/injection, schedule: Q01DX009 (ip), vehicle: saline
[16] = dose: 100.0 mg/kg/injection, schedule: Q01DX009 (ip), vehicle: saline
[17] = dose: 50.0 mg/kg/injection, schedule: Q01DX009 (ip), vehicle: Klucel (hydroxypropylcellulose) (HPC)

Measured: T/C

C/C(=N\OC(=O)c1ccc([N+](=O)[O-])cc1)C(C)(C)C
inactive: dose: 100.0 mg/kg/injection, schedule: Q04DX002 (ip), vehicle: Klucel (hydroxypropylcellulose) (HPC) 88 % of control | dose: 200.0 mg/kg/injection, schedule: Q04DX002 (ip), vehicle: Klucel (hydroxypropylcellulose) (HPC) 100 % of control | dose: 400.0 mg/kg/injection, schedule: Q04DX002 (ip), vehicle: Klucel (hydroxypropylcellulose) (HPC) 96 % of control

CC(=O)OCN1C(=O)C2C3CCC(O3)C2C1=O (configuration not stated)
inactive: dose: 25.0 mg/kg/injection, schedule: Q04DX003 (ip), vehicle: saline with Tween-80 104 % of control | dose: 50.0 mg/kg/injection, schedule: Q04DX003 (ip), vehicle: saline with Tween-80 98 % of control | dose: 100.0 mg/kg/injection, schedule: Q01DX001 (ip), vehicle: saline with Tween-80 106 % of control | [1] 95 % of control and 104 % of control | dose: 200.0 mg/kg/injection, schedule: Q01DX001 (ip), vehicle: saline with Tween-80 98 % of control

CCCCCCCCCCCCCCCCCC(=O)CS(C)=O (configuration not stated)
inactive: [2] 94 % of control | [3] 91 % of control | [4] 96 % of control

C=CC(=O)Nc1cccc(OC(=O)NC(C)(C)C)c1
inactive: [1] 101 % of control | [5] 92 % of control | [6] 87 % of control

BrC1(C2(Br)N(c3ccccc3)CCN2c2ccccc2)N(c2ccccc2)CCN1c1ccccc1
inactive: dose: 7.5 mg/kg/injection, schedule: Q01DX001 (ip), vehicle: saline 105 % of control | dose: 7.5 mg/kg/injection, schedule: Q04DX003 (ip), vehicle: saline 108 % of control | dose: 15.0 mg/kg/injection, schedule: Q01DX001 (ip), vehicle: saline 105 % of control | dose: 15.0 mg/kg/injection, schedule: Q04DX003 (ip), vehicle: saline 106 % of control | dose: 30.0 mg/kg/injection, schedule: Q01DX001 (ip), vehicle: saline 112 % of control | dose: 30.0 mg/kg/injection, schedule: Q04DX003 (ip), vehicle: saline 100 % of control

O=C(c1ccc([N+](=O)[O-])cc1)c1ccc([N+](=O)[O-])cc1
inactive: [7] 90 % of control | [8] 90 % of control | [9] 101 % of control

O=C1CN(CO)C(=O)CN1CO
inactive: dose: 44.0 mg/kg/injection, schedule: Q01DX009 (ip), vehicle: saline 105 % of control | dose: 66.0 mg/kg/injection, schedule: Q01DX009 (ip), vehicle: saline 99 % of control | dose: 150.0 mg/kg/injection, schedule: Q01DX009 (ip), vehicle: saline 108 % of control | [10] 105 % of control | [11] 106 % of control

Cc1ccc(NC(N)=O)cc1Cl
inactive: [12] 105 % of control | [13] 107 % of control | [14] 102 % of control

CNC(=O)NCC1OC(OC2(CO)OC(CNC(=O)NC)C(O)C2O)C(O)C(O)C1O (configuration not stated)
inactive: [15] 91 % of control | [16] 98 % of control | [10] 98 % of control

CCOC(=O)c1ccc(NC(=O)Nc2ccccc2C(F)(F)F)cc1
inactive: [12] 88 % of control | [13] 89 % of control | [14] 86 % of control

CC(N)C(=O)c1ccccc1 (configuration not stated)
inactive: [15] 97 % of control | [16] 92 % of control

CC(=C(C#N)C#N)c1ccc(Cl)cc1
inactive: dose: 12.5 mg/kg/injection, schedule: Q01DX001 (ip), vehicle: Klucel (hydroxypropylcellulose) (HPC) 112 % of control | dose: 25.0 mg/kg/injection, schedule: Q01DX001 (ip), vehicle: Klucel (hydroxypropylcellulose) (HPC) 91 % of control | dose: 50.0 mg/kg/injection, schedule: Q01DX001 (ip), vehicle: Klucel (hydroxypropylcellulose) (HPC) 112 % of control | [2] 108 % of control

O=C1OC2(c3ccc(O)cc3Oc3cc(O)ccc32)C2C3C=CC(C3)C12 (configuration not stated)
inactive: [17] 98 % of control | [12] 104 % of control | dose: 100.0 mg/kg/injection, schedule: Q04DX003 (ip), vehicle: saline 98 % of control | [13] 97 % of control | dose: 200.0 mg/kg/injection, schedule: Q04DX003 (ip), vehicle: saline 92 % of control | dose: 400.0 mg/kg/injection, schedule: Q04DX003 (ip), vehicle: saline 95 % of control

COP(=O)(OC)C(OC(=O)C(C)(C)Br)=C(C)C
inactive: [1] 102 % of control | [5] 106 % of control | [6] 113 % of control

CC(Br)C(=O)Nc1ccccc1 (configuration not stated)
inactive: dose: 100.0 mg/kg/injection, schedule: Q01DX009 (ip), vehicle: saline with Tween-80 93 % of control | [1] 101 % of control | dose: 200.0 mg/kg/injection, schedule: Q01DX009 (ip), vehicle: saline with Tween-80 103 % of control | [5] 95 % of control | dose: 400.0 mg/kg/injection, schedule: Q01DX009 (ip), vehicle: saline with Tween-80 90 % of control | [6] 95 % of control

CCN(CC)C(=S)SC(=S)N(CC)CC
inactive: dose: 100.0 mg/kg/injection, schedule: Q04DX002 (ip), vehicle: gum acacia 103 % of control | dose: 200.0 mg/kg/injection, schedule: Q04DX002 (ip), vehicle: gum acacia 103 % of control | dose: 400.0 mg/kg/injection, schedule: Q04DX002 (ip), vehicle: gum acacia 89 % of control

N#CC(=C(c1ccccc1)c1ccccc1)c1ccccc1
inactive: [2] 108 % of control | [3] 108 % of control | [4] 106 % of control

Cc1ccccc1NC(=O)CS
inactive: [1] 95 % of control | [5] 88 % of control

CCc1ccccc1NC(=O)Sc1cccc(C)c1
inactive: dose: 25.0 mg/kg/injection, schedule: Q01DX009 (ip), vehicle: Klucel (hydroxypropylcellulose) (HPC) 96 % of control | [17] 96 % of control | [12] 98 % of control and 103 % of control | [2] 100 % of control | [3] 105 % of control

CSc1nc(Cl)c(Br)c(N2CC2)n1
inactive: dose: 100.0 mg/kg/injection, schedule: Q01DX Z (ip), vehicle: methylcellulose (MC) 110 % of control | dose: 200.0 mg/kg/injection, schedule: Q01DX Z (ip), vehicle: methylcellulose (MC) 108 % of control

CC(C)Oc1ccc(C(=O)NS(=O)(=O)c2ccc(N)cc2)cc1
inactive: dose: 100.0 mg/kg/injection, schedule: Q01DX001 (ip), vehicle: saline 101 % of control | [16] 91 % of control | dose: 200.0 mg/kg/injection, schedule: Q01DX001 (ip), vehicle: saline 101 % of control | [10] 103 % of control | dose: 400.0 mg/kg/injection, schedule: Q01DX001 (ip), vehicle: saline 100 % of control | [11] 100 % of control

COc1cccc(NC(=S)N(CCC#N)C2CCCCC2)c1
inactive: [7] 102 % of control | [8] 97 % of control | [9] 97 % of control
